Results: article PMC11200585, “Prospects for Prostate Cancer Chemotherapy: Cytotoxic Evaluation and Mechanistic Insights of Quinolinequinones with ADME/PK Profile” (Biomedicines, 2024)

Legend:
Format in all cases: cell-based, human
[1] = tested on: DU-145; assay: NCI-60 five-dose assay (prostate cancer); settings: 48 h, SRB
[2] = tested on: MOLT-4; assay: NCI-60 five-dose assay (leukemia); settings: 48 h, SRB
[3] = tested on: SF-539; assay: NCI-60 five-dose assay (CNS cancer); settings: 48 h, SRB
[4] = tested on: HOP-92; assay: NCI-60 five-dose assay (non-small cell lung cancer); settings: 48 h, SRB
[5] = tested on: HOP-92; assay: NCI-60 one-dose screen (non-small cell lung cancer); settings: 10 µM single dose, 48 h
[6] = tested on: NCI-H23; assay: as above; settings: 10 µM single dose, 48 h
[7] = tested on: NCI-H226; assay: as above; settings: 10 µM single dose
[8] = tested on: EKVX; assay: as above; settings: 10 µM single dose
[9] = tested on: HOP-62; assay: as above; settings: 10 µM single dose, 48 h
[10] = tested on: NCI-H322M; assay: as above; settings: 10 µM single dose, 48 h
[11] = tested on: NCI-H460; assay: as above; settings: 10 µM single dose, 48 h
[12] = tested on: NCI-H522; assay: as above; settings: 10 µM single dose, 48 h
[13] = tested on: HT29; assay: NCI-60 five-dose assay (colon cancer); settings: SRB
[14] = tested on: U251; assay: NCI-60 five-dose assay (CNS cancer); settings: SRB
[15] = tested on: 786-0; assay: NCI-60 one-dose screen (renal cancer); settings: 10 µM single dose, 48 h
Description: (§1) The obtained quinolinequinones were submitted to NCI, Bethesda, USA, and, as per standard protocol of NCI, all compounds were evaluated for their antiproliferative activity at single-dose assay (10 µM concentration in DMSO) on a panel of 60 cancer cell lines derived from leukemia, non-small-cell lung, colon, CNS, melanoma, ovarian, renal, prostate, and breast, as per protocol. Tested compounds were added to the microtiter culture plates followed by incubation for 48 h at 37 °C. Sulforhodamine B (SRB), a protein-binding dye, is used for endpoint determination. The percent of the growth of the treated cells was determined in comparison to the untreated control cells and the results of each tested compound were reported. Data from one-dose experiments pertain to the percentage growth at 10 μM [16, 17, 18].

[16] = tested on: UO-31; assay: NCI-60 one-dose screen (renal cancer); settings: 10 µM single dose, 48 h
Description: as §1

[17] = tested on: A498; assay: NCI-60 one-dose screen (renal cancer); settings: 10 µM single dose, 48 h
Description: as §1

[18] = tested on: ACHN; assay: NCI-60 one-dose screen (renal cancer); settings: 10 µM single dose, 48 h
Description: as §1

[19] = tested on: TK-10; assay: NCI-60 one-dose screen (renal cancer); settings: 10 µM single dose, 48 h
Description: as §1

[20] = tested on: SN12C; assay: NCI-60 one-dose screen (renal cancer); settings: 10 µM single dose, 48 h
Description: as §1

[21] = tested on: NCI-H522; assay: NCI-60 five-dose assay (non-small cell lung cancer); settings: 48 h, SRB
[22] = tested on: BT-549; assay: NCI-60 five-dose assay (breast cancer); settings: 48 h, SRB
[23] = tested on: HCT-116; assay: NCI-60 five-dose assay (colon cancer); settings: 48 h, SRB
[24] = tested on: UACC-62; assay: NCI-60 five-dose assay (melanoma); settings: 48 h, SRB
[25] = tested on: OVCAR-3; assay: NCI-60 five-dose assay (ovarian cancer); settings: 48 h, SRB
[26] = tested on: 786-0; assay: NCI-60 five-dose assay (renal cancer); settings: 48 h, SRB
[27] = tested on: RPMI-8226; assay: NCI-60 five-dose assay (leukemia); settings: 48 h, SRB
[28] = tested on: SF-268; assay: NCI-60 five-dose assay (CNS cancer); settings: 48 h, SRB
[29] = tested on: EKVX; assay: NCI-60 five-dose assay (non-small cell lung cancer); settings: 48 h, SRB
[30] = tested on: NCI-H226; assay: as above; settings: 48 h, SRB
[31] = tested on: HT29; assay: NCI-60 one-dose screen (colon cancer); settings: 10 µM single dose, 48 h
Description: as §1

[32] = tested on: HCT-116; assay: NCI-60 one-dose screen (colon cancer); settings: 10 µM single dose, 48 h
Description: as §1

[33] = tested on: HCT-15; assay: NCI-60 one-dose screen (colon cancer); settings: 10 µM single dose, 48 h
Description: as §1

[34] = tested on: SW-620; assay: NCI-60 one-dose screen (colon cancer); settings: 10 µM single dose, 48 h
Description: as §1

[35] = tested on: KM12; assay: NCI-60 one-dose screen (colon cancer); settings: 10 µM single dose, 48 h
Description: as §1

[36] = tested on: HCC-2998; assay: NCI-60 one-dose screen (colon cancer); settings: 10 µM single dose, 48 h
Description: as §1

[37] = tested on: COLO 205; assay: NCI-60 one-dose screen (colon cancer); settings: 10 µM single dose, 48 h
Description: as §1

[38] = tested on: CAKI-1; assay: NCI-60 five-dose assay (renal cancer); settings: 48 h, SRB
[39] = Homo sapiens, read-out: LC50 (the source's name)

COc1ccccc1NC1=C(Cl)C(=O)c2nc(C)ccc2C1=O [AQQ1]
TGI [1]: 3.11 µM
GI50 ([1]; Homo sapiens): 1.72 µM
CC50 [1, 39]: 5.62 µM
TGI [2]: 8.60 µM
GI50 ([2]; Homo sapiens): 2.27 µM
LC50 ([2]; Homo sapiens): > 100 µM
TGI [3]: 3.13 µM
GI50 ([3]; Homo sapiens): 1.68 µM
LC50 ([3]; Homo sapiens): 5.81 µM
TGI [4]: 3.30 µM
GI50 ([4]; Homo sapiens): 1.85 µM
LC50 (50% lethal concentration) ([4]; Homo sapiens): 5.91 µM
GP (growth percentage) [5]: −83.81%
GP (growth percentage) [6]: −8.37%
GP (growth percentage) ([7]; 48 h): 29.65%
inhibition at 10 µM ([7]; Homo sapiens): 70.3%
GP (growth percentage) ([8]; 48 h): 28.52%
inhibition at 10 µM ([8]; Homo sapiens): 71.5%
GP (growth percentage) [9]: 74.12%
GP (growth percentage) [10]: 71.14%
GP (growth percentage) [11]: 70.83%
GP (growth percentage) [12]: −48.50%
TGI ([13]; 48 h): 4.49 µM
GI50 ([13]; Homo sapiens, HT-29, 48 h): 2.13 µM
LC50 (concentration killing 50% of cells) ([13]; Homo sapiens, HT-29, 48 h): 9.46 µM
TGI ([14]; 48 h): 3.73 µM
GI50 ([14]; Homo sapiens, U-251, 48 h): 1.85 µM
LC50 (concentration killing 50% of cells) ([14]; Homo sapiens, U-251, 48 h): 7.53 µM
GP (growth percentage) [15]: 9.17%
GP (growth percentage) [16]: −65.68%
GP (growth percentage) [17]: 71.81%
GP (growth percentage) [18]: −99.93%
GP (growth percentage) [19]: 147.78%
GP (growth percentage) [20]: −49.46%
TGI [21]: 3.36 µM
GI50 ([21]; Homo sapiens): 1.81 µM
LC50 ([21]; Homo sapiens): 6.24 µM
TGI [22]: 3.27 µM
GI50 ([22]; Homo sapiens): 1.72 µM
LC50 (concentration giving 50% net cell kill) ([22]; Homo sapiens): 6.19 µM
TGI [23]: 4.16 µM
GI50 ([23]; Homo sapiens): 1.53 µM
LC50 ([23]; Homo sapiens): 44.3 µM
TGI [24]: 3.37 µM
GI50 ([24]; Homo sapiens): 1.82 µM
LC50 (concentration killing 50% of cells) ([24]; Homo sapiens): 6.25 µM
TGI [25]: 2.40 µM
GI50 ([25]; Homo sapiens): 1.12 µM
CC50 [25, 39]: 5.15 µM
TGI [26]: 3.61 µM
GI50 ([26]; Homo sapiens): 1.91 µM
LC50 ([26]; Homo sapiens): 6.82 µM
TGI [27]: 4.61 µM
GI50 ([27]; Homo sapiens): 1.57 µM
CC50 [27, 39]: > 100 µM
TGI [28]: 3.05 µM
GI50 ([28]; Homo sapiens): 1.53 µM
LC50 (concentration killing 50% of cells) ([28]; Homo sapiens): 6.06 µM
TGI [29]: 3.05 µM
GI50 ([29]; Homo sapiens): 1.61 µM
CC50 [29, 39]: 5.78 µM
TGI [30]: 4.52 µM
GI50 ([30]; Homo sapiens): 1.93 µM
LC50 ([30]; Homo sapiens): 14.1 µM
GP (growth percentage) [31]: 75.04%
GP (growth percentage) [32]: −80.64%
GP (growth percentage) [33]: −47.03%
GP (growth percentage) [34]: −63.13%
GP (growth percentage) [35]: 69.40%
GP (growth percentage) [36]: 58.90%
GP (growth percentage) [37]: 111.34%
TGI [38]: 2.87 µM
GI50 ([38]; Homo sapiens): 1.5 µM
LC50 (lethal concentration, 50% net cell kill) ([38]; Homo sapiens): 5.47 µM
